The subject of test [1] is SOD1, GADD34 and CHOP (GADD153). Put plainly: Western blot of oxidative stress and ER stress response factors in Hep3B cells. The class given is cell-based, human. The note with it: 3 days, with 2 μM sorafenib. How it is done:
Proteins were extracted from cells using RIPA buffer, separated by SDS-PAGE, and transferred to PVDF membranes (Amersham Hybond ECL). For protein detection, membranes were incubated with antibodies against LXRα (Novus Biologicals, NBP2–17186, dilution: 1:1000), LXRβ (Cell Signaling Technology, 13519S, clone: D6M9D, dilution: 1:1000), CHOP (Cell Signaling, 2895 (L63F7), dilution: 1:1000), GADD34 (Proteintech, 10449–1-AP, dilution: 1:1000), SOD1 (ThermoFisher Scientific, MA1–105, clone: 8B10, dilution: 1:1000), α-tubulin (Cell Signaling, 2125 clone: 11H10, dilution: 1:5000), and vinculin (Sigma-Aldrich V9131, clone: hVIN-1, dilution: 1:5000) and visualized using the ChemiDoc MP imaging system (Bio-Rad, ImageLab v5.2.1).

The test system of the next test is Hep3B cells. Put plainly: Cell viability analysis in Hep3B cells (CellTiter-Glo). The class given is cell-based, human. The settings on record: 5d. How it is done:
To determine the therapeutic efficacy of compound 40 in HCC cells, we next tested its effect on Hep3B cell viability in combination with the DFG-out Raf inhibitor sorafenib (2 μM).
For organoid treatment studies, digestion of organoids was performed using TrypLE Express (Gibco) supplemented with 100 μg/mL DNaseI and 10.5 μM Y-27632 dihydrochloride (Invitrogen) at 37 °C, and afterward, single-cells were plated in white 96 well plates (Sarstedt) in a mixture of 10% Matrigel (Growth Factor Reduced (GFR) Matrigel, Corning) in culture medium. Cell viability was determined after 5 days of treatment using the CellTiter-Glo 3D Cell Viability Assay Kit (Promega). Cell viability of Hep3B, AML12, and BNL CL.2 cells was determined after 5 days of treatment in white 96 well plates (Sarstedt) using the CellTiter-Glo 2.0 Cell Viability Assay Kit (Promega). AML12 and BNL CL.2 cells were also obtained from the American Type Culture Collection. The luminescence signal was measured using an […] M PLEX plate reader (Tecan) and the Tecan i-control software (v3.9.1). Sodium oleate (Selleckchem) was dissolved in methanol and added to cells at a final concentration of 200 μM.

Each structure is given as a SMILES string.

For the compound `O=C1C(Nc2ccc(N3CCCCC3)cc2)=C(c2ccccc2)C(=O)N1Cc1ccccc1` [Compound 40, 1-Benzyl-3-phenyl-4-((4-(piperidin-1-yl)phenyl)amino)-1H-pyrrole-2,5-dione], the “induction of SOD1, GADD34 and CHOP” value in test [1] was “strong induction of all factors”. In the test on Hep3B cells (2 μM sorafenib ± 200 μM sodium oleate), the “effect of sodium oleate on efficacy of the combination with sorafenib” value is “strongly diminished the therapeutic efficacy”. For the same compound, the “therapeutic effect on cell viability, monotherapy” value in the test on Hep3B cells (without sorafenib) is reported as “did not show a significant therapeutic effect”.

(Values after PMC11997999, “Uncovering α-Selectivity for Liver X Receptor Agonists for Lipotoxic Cancer Therapies” (Journal of Medicinal Chemistry, 2025).)
